Reference: ChEMBL document CHEMBL3576805, “Discovery of a Dual PRMT5-PRMT7 Inhibitor” (ACS Med Chem Lett, 2015)
Activity calls are given as the source filed them. The rule behind the calls is not given here.

What was measured:
[1] = biological target: DNA (cytosine-5)-methyltransferase 3A (Homo sapiens, UniProt Q9Y6K1); assay: Inhibition of human full length DNMT3A expressed in Sf9 cells
[2] = biological target: DNA (cytosine-5)-methyltransferase 3B (Homo sapiens, UniProt Q9UBC3); assay: Inhibition of human full length DNMT3B expressed in Sf9 cells
MDA-MB-231 [3] = assay: Cytotoxicity against human MDA-MB-231 cells assessed as cell viability by Alamar blue assay; type: cell-based
PRMT5/MEP50 complex [4] = biological target: T1, PRMT5/MEP50 complex (Homo sapiens, UniProt O14744); assay: (§1) Inhibition of human full length PRMT5-MEP50 complex expressed in Sf9 cells
T1 sequence (O14744 whole entry): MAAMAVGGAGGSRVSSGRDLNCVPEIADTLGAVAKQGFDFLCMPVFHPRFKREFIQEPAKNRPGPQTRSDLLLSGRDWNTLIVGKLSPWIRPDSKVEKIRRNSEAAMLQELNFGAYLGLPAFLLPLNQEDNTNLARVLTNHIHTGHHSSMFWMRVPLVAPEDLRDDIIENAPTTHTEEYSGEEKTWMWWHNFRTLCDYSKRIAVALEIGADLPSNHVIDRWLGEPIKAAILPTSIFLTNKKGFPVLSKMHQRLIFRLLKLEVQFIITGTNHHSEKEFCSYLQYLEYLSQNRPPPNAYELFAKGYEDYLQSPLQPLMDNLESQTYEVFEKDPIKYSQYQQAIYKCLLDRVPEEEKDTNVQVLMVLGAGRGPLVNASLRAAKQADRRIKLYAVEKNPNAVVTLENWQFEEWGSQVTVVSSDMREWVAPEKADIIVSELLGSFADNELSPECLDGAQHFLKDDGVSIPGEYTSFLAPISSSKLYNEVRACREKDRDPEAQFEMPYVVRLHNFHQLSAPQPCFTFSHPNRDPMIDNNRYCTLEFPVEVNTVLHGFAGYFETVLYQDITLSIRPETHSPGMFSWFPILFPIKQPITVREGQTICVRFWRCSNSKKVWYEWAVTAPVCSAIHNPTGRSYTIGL
T1 sequence (Q9BQA1 whole entry, further chain): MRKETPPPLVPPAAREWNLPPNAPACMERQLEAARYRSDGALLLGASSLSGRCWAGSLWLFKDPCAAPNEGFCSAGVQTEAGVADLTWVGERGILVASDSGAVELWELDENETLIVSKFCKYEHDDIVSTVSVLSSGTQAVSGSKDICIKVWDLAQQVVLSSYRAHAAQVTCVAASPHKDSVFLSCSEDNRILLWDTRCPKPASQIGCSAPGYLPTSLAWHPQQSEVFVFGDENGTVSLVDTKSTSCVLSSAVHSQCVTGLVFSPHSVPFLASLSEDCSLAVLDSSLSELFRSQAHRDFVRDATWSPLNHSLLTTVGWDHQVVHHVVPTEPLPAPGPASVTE

[5] = biological target: T2, PRMT5/MEP50 complex (Homo sapiens) (UniProt O14744+Q9BQA1); assay: as §1
MDA-MB-231 [6] = assay: Inhibition of H4R3 methylation in human MDA-MB-231 cells at 50 uM by immunoblotting analysis; type: functional, cell-based
[7] = biological target: Protein arginine N-methyltransferase 6 (Homo sapiens) (UniProt Q96LA8); assay: Inhibition of PRMT6 (unknown origin)
Protein arginine N-methyltransferase 6 (Homo sapiens), sequence (Q96LA8 whole entry, looked up): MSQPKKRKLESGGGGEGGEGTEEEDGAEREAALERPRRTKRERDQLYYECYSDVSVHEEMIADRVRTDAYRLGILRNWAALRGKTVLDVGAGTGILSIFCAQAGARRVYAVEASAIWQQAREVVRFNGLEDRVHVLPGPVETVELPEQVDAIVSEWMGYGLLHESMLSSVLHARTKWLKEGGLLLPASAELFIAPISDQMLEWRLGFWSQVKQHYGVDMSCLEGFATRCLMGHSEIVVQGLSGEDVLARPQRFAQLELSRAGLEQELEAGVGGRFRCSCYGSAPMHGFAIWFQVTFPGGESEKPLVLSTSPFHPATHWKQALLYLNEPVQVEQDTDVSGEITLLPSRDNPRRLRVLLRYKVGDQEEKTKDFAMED

PRMT5/MEP50 complex [8] = biological target: T1, PRMT5/MEP50 complex; assay: Inhibition of human full length PRMT5-MEP50 complex expressed in Sf9 cells using full length histone H4 substrate
PRMT5/MEP50 complex [9] = biological target: T1, PRMT5/MEP50 complex; assay: Binding affinity to human full length PRMT5-MEP50 complex by Surface plasmon resonance method; type: protein-complex assay
[10] = biological target: Protein arginine N-methyltransferase 8 (Homo sapiens) (UniProt Q9NR22); assay: Inhibition of PRMT8 (unknown origin)
Protein arginine N-methyltransferase 8 (Homo sapiens), sequence (Q9NR22 2-394 limits assumed): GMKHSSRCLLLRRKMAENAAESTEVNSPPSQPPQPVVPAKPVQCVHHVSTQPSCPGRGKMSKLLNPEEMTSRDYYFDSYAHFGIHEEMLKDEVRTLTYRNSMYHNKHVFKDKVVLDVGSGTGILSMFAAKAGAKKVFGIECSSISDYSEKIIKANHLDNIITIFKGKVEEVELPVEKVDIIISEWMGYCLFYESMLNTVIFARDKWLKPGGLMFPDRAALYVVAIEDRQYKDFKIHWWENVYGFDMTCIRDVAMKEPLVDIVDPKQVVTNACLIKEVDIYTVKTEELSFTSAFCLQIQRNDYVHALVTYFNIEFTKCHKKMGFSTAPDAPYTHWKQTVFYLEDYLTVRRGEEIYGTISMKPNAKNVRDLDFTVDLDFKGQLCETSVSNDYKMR

[11] = biological target: T2, PRMT5/MEP50 complex (Homo sapiens); assay: Noncompetitive inhibition of human full length PRMT5-MEP50 complex expressed in Sf9 cells in presence of increasing concentration of histone peptide substrate
[12] = biological target: T2, PRMT5/MEP50 complex (Homo sapiens); assay: Inhibition of human full length PRMT5-MEP50 complex expressed in Sf9 cells using SmD3 peptide AGRGRGKAAILKAQVAARGRGRGMGRGN as a substrate
[13] = biological target: T3, Protein arginine N-methyltransferase 7 (Homo sapiens, UniProt Q9NVM4); assay: Binding affinity to human full length PRMT7 by Surface plasmon resonance method
T3 sequence (Q9NVM4 whole entry): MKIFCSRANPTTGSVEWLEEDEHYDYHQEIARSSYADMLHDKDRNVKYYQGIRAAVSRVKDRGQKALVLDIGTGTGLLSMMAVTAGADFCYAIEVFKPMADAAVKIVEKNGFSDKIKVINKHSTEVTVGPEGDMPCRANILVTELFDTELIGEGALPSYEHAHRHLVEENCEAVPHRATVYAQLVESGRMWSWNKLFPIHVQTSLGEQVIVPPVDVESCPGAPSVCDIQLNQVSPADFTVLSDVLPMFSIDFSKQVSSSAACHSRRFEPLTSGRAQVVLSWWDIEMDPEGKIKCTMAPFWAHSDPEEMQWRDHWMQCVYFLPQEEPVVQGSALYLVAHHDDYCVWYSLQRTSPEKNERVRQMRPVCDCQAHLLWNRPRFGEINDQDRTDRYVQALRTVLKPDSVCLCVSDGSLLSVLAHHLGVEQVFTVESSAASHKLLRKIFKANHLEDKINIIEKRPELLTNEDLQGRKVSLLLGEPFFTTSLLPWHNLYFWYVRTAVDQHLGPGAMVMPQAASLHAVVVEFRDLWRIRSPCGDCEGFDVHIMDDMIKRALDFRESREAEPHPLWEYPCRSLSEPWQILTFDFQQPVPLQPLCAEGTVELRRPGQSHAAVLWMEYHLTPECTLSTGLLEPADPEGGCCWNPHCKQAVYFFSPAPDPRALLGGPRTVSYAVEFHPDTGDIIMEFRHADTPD

[14] = biological target: Protein arginine N-methyltransferase 3 (Homo sapiens) (UniProt O60678); assay: Inhibition of PRMT3 (unknown origin)
Protein arginine N-methyltransferase 3 (Homo sapiens), sequence (O60678 2-531 limits assumed): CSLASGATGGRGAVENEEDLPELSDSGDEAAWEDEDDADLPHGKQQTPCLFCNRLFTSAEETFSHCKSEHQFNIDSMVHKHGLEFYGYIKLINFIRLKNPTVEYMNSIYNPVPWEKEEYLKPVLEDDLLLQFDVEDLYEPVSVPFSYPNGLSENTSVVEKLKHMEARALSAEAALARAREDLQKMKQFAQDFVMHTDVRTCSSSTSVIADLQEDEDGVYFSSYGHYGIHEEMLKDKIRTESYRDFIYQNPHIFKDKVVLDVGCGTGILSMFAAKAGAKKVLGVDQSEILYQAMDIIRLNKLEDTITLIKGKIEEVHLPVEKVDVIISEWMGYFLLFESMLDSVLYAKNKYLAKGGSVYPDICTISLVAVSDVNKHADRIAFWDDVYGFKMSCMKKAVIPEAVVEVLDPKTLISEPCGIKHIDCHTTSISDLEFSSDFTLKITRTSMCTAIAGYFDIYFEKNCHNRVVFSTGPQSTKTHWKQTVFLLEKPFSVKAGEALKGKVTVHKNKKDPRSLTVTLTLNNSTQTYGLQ

[15] = biological target: Protein arginine N-methyltransferase 1 (Homo sapiens) (UniProt Q99873); assay: Inhibition of PRMT1 (unknown origin)
Protein arginine N-methyltransferase 1 (Homo sapiens), sequence (Q99873 whole entry, looked up): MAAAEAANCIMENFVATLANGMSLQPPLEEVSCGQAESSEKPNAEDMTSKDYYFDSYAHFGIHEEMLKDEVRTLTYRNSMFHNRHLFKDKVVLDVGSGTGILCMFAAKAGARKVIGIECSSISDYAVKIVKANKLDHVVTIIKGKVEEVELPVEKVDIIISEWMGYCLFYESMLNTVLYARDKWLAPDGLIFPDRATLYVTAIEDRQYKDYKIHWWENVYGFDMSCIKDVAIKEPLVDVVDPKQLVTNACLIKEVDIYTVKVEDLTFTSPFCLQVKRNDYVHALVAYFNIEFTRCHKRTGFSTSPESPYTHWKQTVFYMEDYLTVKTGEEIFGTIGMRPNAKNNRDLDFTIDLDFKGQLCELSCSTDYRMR

[16] = biological target: T3, Protein arginine N-methyltransferase 7; assay: Inhibition of human full length PRMT7 expressed in Sf9 cells
[17] = biological target: Protein arginine N-methyltransferase 5 (Homo sapiens, UniProt O14744); assay: Inhibition of human full length PRMT5 expressed in Sf9 cells
Protein arginine N-methyltransferase 5, sequence (O14744 whole entry): as the sequence (O14744 whole entry) above

[18] = biological target: T2, PRMT5/MEP50 complex (Homo sapiens); assay: Inhibition of human full length PRMT5-MEP50 complex expressed in Sf9 cells assessed as inhibition of methylation of peptide substrate at 750 uM

DNA (cytosine-5)-methyltransferase 3A, sequence (Q9Y6K1 whole entry, looked up): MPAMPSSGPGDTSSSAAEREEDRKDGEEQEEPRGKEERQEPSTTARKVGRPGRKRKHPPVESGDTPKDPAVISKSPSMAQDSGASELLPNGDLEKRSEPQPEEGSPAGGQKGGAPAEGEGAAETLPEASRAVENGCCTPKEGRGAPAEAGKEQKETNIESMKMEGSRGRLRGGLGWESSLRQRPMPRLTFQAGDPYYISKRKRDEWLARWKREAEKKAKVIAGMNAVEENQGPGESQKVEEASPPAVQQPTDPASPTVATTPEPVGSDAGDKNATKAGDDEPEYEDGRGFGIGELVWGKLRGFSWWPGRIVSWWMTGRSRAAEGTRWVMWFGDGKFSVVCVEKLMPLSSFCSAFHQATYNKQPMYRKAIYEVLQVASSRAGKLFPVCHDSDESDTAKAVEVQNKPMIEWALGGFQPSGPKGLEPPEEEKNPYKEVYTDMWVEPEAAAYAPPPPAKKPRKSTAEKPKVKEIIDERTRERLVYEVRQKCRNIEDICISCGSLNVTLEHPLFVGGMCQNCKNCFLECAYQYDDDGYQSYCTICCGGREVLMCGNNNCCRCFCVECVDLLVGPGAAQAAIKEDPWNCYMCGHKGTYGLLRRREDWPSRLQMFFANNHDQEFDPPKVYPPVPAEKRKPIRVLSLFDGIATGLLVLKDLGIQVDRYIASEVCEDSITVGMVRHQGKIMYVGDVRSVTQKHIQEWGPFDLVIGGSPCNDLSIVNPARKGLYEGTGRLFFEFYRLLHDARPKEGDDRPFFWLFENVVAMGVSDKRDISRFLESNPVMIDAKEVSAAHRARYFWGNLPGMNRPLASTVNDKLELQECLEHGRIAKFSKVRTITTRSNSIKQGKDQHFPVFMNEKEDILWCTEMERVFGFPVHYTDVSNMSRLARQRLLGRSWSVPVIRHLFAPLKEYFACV

| IC50 [1] | IC50 [2] | IC50 (PRMT5/MEP50 complex [4]) | inhibition [5] | inhibition [7] | IC50 (PRMT5/MEP50 complex [8]) | Kd (PRMT5/MEP50 complex [9]) | inhibition [10] | inhibition [11] | inhibition [12] | Kd [13] | inhibition [14] | inhibition [15] | IC50 [16] | IC50 [17] | inhibition [18] | Structure (SMILES) | Activity (MDA-MB-231 [3]) | inhibition (MDA-MB-231 [6]) |
| --- | --- | --- | --- | --- | --- | --- | --- | --- | --- | --- | --- | --- | --- | --- | --- | --- | --- | --- |
| > 50 µM | > 50 µM |  |  |  |  |  |  |  |  |  |  |  |  |  |  | Nc1ncnc2c1ncn2[C@@H]1O[C@H](CSCC[C@H](N)C(=O)O)[C@@H](O)[C@H]1O [S-ADENOSYLHOMOCYSTEINE] |  |  |
| > 50 µM | > 50 µM | 5.9 µM | Dose-dependent effect | inactive | 37 µM | 25 µM | inactive | Active | Active | 37 µM | inactive | inactive | > 50 µM | > 50 µM |  | CCNC(=O)NCCSC[C@H]1O[C@@H](n2cnc3c(N)ncnc32)[C@H](O)[C@@H]1O | Non-toxic | inactive |
|  |  | > 20 µM |  |  |  |  |  |  |  |  |  |  | 7.5 µM |  | 80% | CC(C)N(CCCNC(=O)Nc1ccc(C(C)(C)C)cc1)C[C@H]1O[C@@H](n2ccc3c(N)ncnc32)[C@H](O)[C@@H]1O |  |  |
